Reference: patent US20200405727A1, “NEW ALK INHIBITOR SENOLYTIC DRUGS” (FONDAZIONE PER L'ISTITUTO ONCOLOGICO DI RICERCA (IOR), priority 2018, published 2020)
Entries after “also recorded” stand apart in the source; their conditions may differ.

Key:
[1] = system: MEF WT; assay: Effect of Docetaxel on cell cycle of MEF WT; format: cell-based, murine; conditions: 750 nM for 48 hours
Procedure: (§1) Technically the screening was performed in three passages; • Before treatment, to the culture medium of MEF (DMEM, 10%FBS, 5% P/S) Docetaxel is added, at the concentration of 750 nM for 48 hours. […] The cells were seeded in a 96-well plate at a density of 5000 cells per well. In the more external wells PBS was added, so as to be able to maintain the correct humidity inside the plate. • At last, 24 hours after the seeding of cells, the compounds of our study were added to the cells for 48 hours at the concentration of 10 μM.

[2] = system: MEF Pten−/−; assay: Induction of senescence in MEF Pten−/− by Docetaxel; format: cell-based, murine; conditions: 750 nM for 48 hours
Procedure: as §1

[3] = system: MEF Pten−/− (PICS); assay: Senolytic screening in PICS (Docetaxel-induced senescent MEF Pten−/−), cell viability and SA-β-Gal; format: cell-based, murine; conditions: 10 μM, 48 hours, MEF Pten−/− pre-treated with Docetaxel 750 nM; versus ABT-263 positive control
Procedure: (§2) The platform which was devised in our laboratory is capable of identifying the senolytic compounds based upon two parameters: (1) the inhibition of the cell viability and (2) the removal of the positive cells to the assay of β-Galactosidase (SA-β-Gal, senescence marker). As positive control of the compounds at the test stage, we included ABT-263, previously identified as senolytic compound 2. At last, the senolytic potentiality of these compounds is tested on murine embryonic fibroblasts (MEF) Pten−/− and WT.
as §1, with “μM. […]” for “μM.”

[4] = system: MEF wt (NS); assay: Senolytic screening, specificity on non-senescent MEF wt; format: cell-based, murine; conditions: 10 μM, 48 hours; versus ABT-263
Procedure: as §2
as §1, with “μM. […]” for “μM.”

[5] = system: non-senescent (NS) IMR90; assay: Replicative senescence assay in IMR90, non-senescent cells; format: cell-based, human; conditions: 2.5 μM, Crystal Violet and SA-β-Gal
Procedure: (§3) This assay was validated even with human fibroblasts, IMR90. Analogously to the protocol used for the MEFs, the IMR90 were seeded in 10 cm2-wide plates (3×10^5 cells/plate). Every 3 days these cells were detached by means of trypsin, counted with Trypan Blu and plated in the same number. This process was performed for 33 passages before starting the senolytic treatment. At passages 33 and 34 the senescence of these cells was tested by means of the assay of SA-β-Gal (about 78% of senescent cells).
(§4) At passage 33 non-senescent (NS) cells and cells in replicative senescence (RS) were seeded in a 96-well plate (5000 cells/well) and treated with different concentrations of Alectinib.

[6] = system: PC3; assay: Removal of Palbociclib-induced senescent PC3 prostate cancer cells, Crystal Violet and SA-β-Gal; format: cell-based, human; conditions: 5 μM for 48 hours, senescence induced with Palbociclib
Procedure: (§5) Subsequently we tested the effects of Alectinib on cancer cell lines pre-treated with stimulator of senescence. In the specific case we used TrampC1 and PC3, two cell lines of prostate cancer, respectively murine and human lines. With the purpose of inducing the senescence in these cells, we used Palbociclib, a specific inhibitor of […] currently used in clinic in the treatment of breast cancer. Once the cells started senescence, Alectinib was added to the culture medium at the concentration of 5 μM for 48 hours.

[7] = system: MEFs in replicative senescence (RS); assay: Replicative senescence assay in MEFs, Crystal Violet and SA-β-Gal; format: cell-based, murine; conditions: 10 μM, passage 8, Crystal Violet and SA-β-Gal
Procedure: (§6) The senolytic activity of Alectinib was validated in the context of the replicative senescence: assay which mimes the natural process of cell ageing due to the shortening of telomers. The MEFs were seeded in 10 cm2-plates (3×10^5 cells/plate). Every 3 days these cells were detached by means of trypsin, counted with Trypan Blu and plated in the same number. This process was performed for 8 passages before starting the senolytic treatment. At passages 8 and 9 the senescence of these cells was tested by means of the assay of SA-β-Gal (about 78% of senescent cells).
(§7) At passage 8, the non-senescent cells (NS) and cells in replicative senescence (RS) were seeded in a 96-well plate (5000 cells/well) and treated at different concentrations of Alectinib.

[8] = system: IMR90 in replicative senescence (RS); assay: Replicative senescence assay in human fibroblasts IMR90, Crystal Violet and SA-β-Gal; format: cell-based; conditions: 2.5 μM, passage 33, Crystal Violet and SA-β-Gal
Procedure: as §3, §4

[9] = system: non-senescent (NS) MEFs; assay: Replicative senescence assay in MEFs, non-senescent cells; format: cell-based, murine; conditions: 10 μM, Crystal Violet and SA-β-Gal
Procedure: as §6, §7

[10] = system: TrampC1; assay: Removal of Palbociclib-induced senescent TrampC1 prostate cancer cells, Crystal Violet and SA-β-Gal; format: cell-based, murine; conditions: 5 μM for 48 hours, senescence induced with Palbociclib
Procedure: as §5

CC(=O)O[C@@]12CO[C@@H]1C[C@H](O)[C@@]1(C)C(=O)[C@H](O)C3=C(C)[C@@H](OC(=O)[C@H](O)[C@@H](NC(=O)OC(C)(C)C)c4ccccc4)C[C@@](O)([C@@H](OC(=O)c4ccccc4)[C@H]21)C3(C)C [Docetaxel]
cell cycle of MEF WT [1]: without altering the cell cycle of MEF WT | senescence of MEF Pten−/− [2]: 80%

CCc1cc2c(cc1N1CCC(N3CCOCC3)CC1)C(C)(C)c1[nH]c3cc(C#N)ccc3c1C2=O [Alectinib]
removal of senescent cells (PICS) [3]: strong capability in killing the PICS cells; also recorded: effectiveness comparable to ABT-263 | selectivity: impact on MEF wt (NS) [4]: non-senescent, NS, cells are kept vital; also recorded: more selective by impacting less seriously on MEF wt (NS) | impact on NS cells (IMR90) [5]: without killing the non-senescent (NS) cells; also recorded: without impacting on the NS cells | removal of senescent cells (PC3) [6]: capability of removing the senescent cells in both cell lines; also recorded: capable of removing successfully the senescent cells | removal of senescent cells (RS MEFs) [7]: capable of removing the senescent cells | removal of senescent cells (RS IMR90) [8]: capable of removing the senescent cells | impact on NS cells (MEFs) [9]: without killing the non-senescent (NS) cells; also recorded: without impacting on the cells NS | removal of senescent cells (TrampC1) [10]: capability of removing the senescent cells in both cell lines; also recorded: capable of removing successfully the senescent cells
